Measurements: patent US20090253669A1, “Substituted Sulfonamide Compounds” (GRUENENTHAL GmbH, priority 2008, published 2009)

Columns and labels:
[1] = biological target: T1, human B1R receptor (hB1R) (Homo sapiens, UniProt P46663); test: FLIPR Ca2+ assay on hB1R-transfected CHO K1 cells, antagonistic action; assay type: cell-based; conditions: agonist Lys-Des-Arg9-bradykinin 0.5 nM, % of maximum achievable inhibition; for inhibition at 10 µM: CHO-K1, 10 μM test substance, read-out: hB1R [10 μM] % inhibition
T1 construct: host or cells: CHO K1 cells
T1 sequence (P46663 1-353): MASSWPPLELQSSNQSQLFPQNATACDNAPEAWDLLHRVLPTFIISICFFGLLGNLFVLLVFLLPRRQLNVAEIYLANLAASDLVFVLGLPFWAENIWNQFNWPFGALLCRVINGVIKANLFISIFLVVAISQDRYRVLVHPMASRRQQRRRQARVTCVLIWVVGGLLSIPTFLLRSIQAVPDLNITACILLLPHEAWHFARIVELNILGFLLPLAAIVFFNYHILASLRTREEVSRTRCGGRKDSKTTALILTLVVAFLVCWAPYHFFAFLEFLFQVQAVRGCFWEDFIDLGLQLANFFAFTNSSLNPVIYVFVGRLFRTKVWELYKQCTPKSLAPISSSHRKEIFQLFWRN

[2] = biological target: T2, B1R receptor of the rat (rB1R) (Rattus norvegicus, UniProt P97583); test: FLIPR Ca2+ assay on rB1R-transfected CHO K1 cells, antagonistic action; assay type: cell-based; conditions: agonist Des-Arg9-bradykinin 100 nM, % of maximum achievable inhibition; for inhibition at 10 µM: CHO-K1, 10 μM test substance, read-out: rB1R [10 μM] % inhibition
T2 construct: host or cells: CHO K1 cells
T2 sequence (P97583 1-337): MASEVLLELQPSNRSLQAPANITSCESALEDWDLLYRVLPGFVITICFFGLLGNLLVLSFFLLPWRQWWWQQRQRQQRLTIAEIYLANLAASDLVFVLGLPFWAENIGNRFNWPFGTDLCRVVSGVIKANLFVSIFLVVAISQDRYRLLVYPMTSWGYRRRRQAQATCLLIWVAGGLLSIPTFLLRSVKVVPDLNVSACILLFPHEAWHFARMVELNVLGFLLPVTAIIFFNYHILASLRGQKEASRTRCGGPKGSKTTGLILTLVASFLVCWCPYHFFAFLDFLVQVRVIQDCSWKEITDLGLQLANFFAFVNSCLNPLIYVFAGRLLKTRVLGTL

Row | Compound | inhibition at 10 µM [1] | inhibition at 10 µM [2] | hB1R [10 μM] % inhibition ([1]; 10 μM test substance) | rB1R [10 μM] % inhibition ([2]; 10 μM test substance)
1 | CN(CCOCC(=O)NC1CCC(Cc2ccccc2)(N2CCCC2)CC1)S(=O)(=O)c1c(Cl)cc(Cl)cc1Cl (centres unmarked) [Compound 189, N-(4-benzyl-4-(pyrrolidin-1-yl)cyclohexyl)-2-(2-(2,4,6-trichloro-N-methylphenylsulfonamido)ethoxy)acetamide] | 65% | 60% | – | –
2 | CN1CCN(C2(CCc3ccccc3)CCN(C(=O)COCC3CCc4ccccc4N3S(=O)(=O)c3ccc(Cl)c(Cl)c3)CC2)CC1 (centres unmarked) [Compound 116, 2-((1-(3,4-dichlorophenylsulfonyl)-1,2,3,4-tetrahydroquinolin-2-yl)methoxy)-1-(4-(4-methylpiperazin-1-yl)-4-phenethylpiperidin-1-yl)ethanone] | 57% | 71% | – | –
3 | COc1cc(C)c(S(=O)(=O)N2CCCCC2COCC(=O)NC2CCC(Cc3ccccc3)(N3CCCC3)CC2)c(C)c1 (centres unmarked) [Compound 149, N-(4-benzyl-4-(pyrrolidin-1-yl)cyclohexyl)-2-((1-(4-methoxy-2,6-dimethylphenylsulfonyl)piperidin-2-yl)methoxy)acetamide] | 103% | 105% | – | –
4 | COc1cc(C)c(S(=O)(=O)N2CCCCC2COCCC(=O)N2CCC(c3cccc(F)c3)(N3CCN(C)CC3)CC2)c(C)c1 (centres unmarked) [Compound 226, 1-(4-(3-Fluorophenyl)-4-(4-methylpiperazin-1-yl)piperidin-1-yl)-3-((1-(4-methoxy-2,6-dimethylphenylsulfonyl)piperidin-2-yl)methoxy)propan-1-one] | 100% | 100% | – | –
5 | CN(CCC1CCC(c2ccccc2)(N2CCCC2)CC1)C(=O)CC1CCCCN1S(=O)(=O)c1cccc(C(F)(F)F)c1 (centres unmarked) [Compound 106, N-methyl-N-(2-(4-phenyl-4-(pyrrolidin-1-yl)cyclohexyl)ethyl)-2-(1-(3-(trifluoromethyl)phenylsulfonyl)piperidin-2-yl)acetamide] | 101% | 79% | – | –
6 | COc1cc(C)c(S(=O)(=O)N2CCCCC2COCC(=O)NC2CCC(Cc3ccccc3)(N3CCOCC3)CC2)c(C)c1 (centres unmarked) [Compound 155, N-(4-benzyl-4-morpholinocyclohexyl)-2-((1-(4-methoxy-2,6-dimethylphenylsulfonyl)piperidin-2-yl)methoxy)acetamide] | 97% | 100% | – | –
7 | COc1cc(C)c(S(=O)(=O)N(C)CCOCC(=O)NC2CCC(Cc3ccc(F)cc3)(N(C)C)CC2)c(C)c1 (centres unmarked) [Compound 9, N-(4-(dimethylamino)-4-(4-fluorobenzyl)cyclohexyl)-2-(2-(4-methoxy-N,2,6-trimethylphenylsulfonamido)ethoxy)acetamide] | 104% | 95% | – | –
8 | CN(C)C1(c2cccc(F)c2)CCC(NC(=O)COCCN(C)S(=O)(=O)c2ccc(Cl)cc2Cl)CC1 (centres unmarked) [Compound 21, 2-(2-(2,4-dichloro-N-methylphenylsulfonamido)ethoxy)-N-(4-(dimethylamino)-4-(3-fluorophenyl)cyclohexyl)acetamide] | 29% | 67% | – | –
9 | COc1cc(C)c(S(=O)(=O)N2CCCCC2COCC(=O)N2CCC(c3ccccc3)(N(C)C)CC2)c(C)c1 (centres unmarked) [Compound 202, 1-(4-(dimethylamino)-4-phenylpiperidin-1-yl)-2-((1-(4-methoxy-2,6-dimethylphenylsulfonyl)piperidin-2-yl)methoxy)ethanone] | 100% | 103% | – | –
10 | CN(CC1CCC(c2ccccc2)(N2CCCC2)CC1)C(=O)CC1CCCCN1S(=O)(=O)c1cccc(C(F)(F)F)c1 (centres unmarked) [Compound 33, N-methyl-N-((4-phenyl-4-(pyrrolidin-1-yl)cyclohexyl)methyl)-2-(1-(3-(trifluoromethyl)phenylsulfonyl)piperidin-2-yl)acetamide] | 94% | 101% | – | –
11 | CN(CCC1CCC(Cc2ccccc2)(N(C)C)CC1)C(=O)CC1CCCCN1S(=O)(=O)c1cccc(C(F)(F)F)c1 (centres unmarked) [Compound 95, N-(2-(4-benzyl-4-(dimethylamino)cyclohexyl)ethyl)-N-methyl-2-(1-(3-(trifluoromethyl)phenylsulfonyl)piperidin-2-yl)acetamide] | 99% | 93% | – | –
12 | CN(CCC1CCC(CCc2ccccc2)(N(C)C)CC1)C(=O)CC(NS(=O)(=O)c1ccc2ccccc2c1)c1ccccc1 (centres unmarked) [Compound 102, N-(2-(4-(dimethylamino)-4-phenethylcyclohexyl)ethyl)-N-methyl-3-(naphthalene-2-sulfonamido)-3-phenylpropanamide] | 97% | 85% | – | –
13 | CN(CCC1CCC(c2ccccc2)(N(C)C)CC1)C(=O)CC1CCCCN1S(=O)(=O)c1cccc(C(F)(F)F)c1 (centres unmarked) [Compound 125, N-(2-(4-(dimethylamino)-4-phenylcyclohexyl)ethyl)-N-methyl-2-(1-(3-(trifluoromethyl)phenylsulfonyl)piperidin-2-yl)acetamide] | 98% | 56% | – | –
14 | COc1cc(C)c(S(=O)(=O)N2CCCCC2COCC(=O)N2CCC(CCc3ccccc3)(N3CCN(C)CC3)CC2)c(C)c1 (centres unmarked) [Compound 77, 2-((1-(4-methoxy-2,6-dimethylphenylsulfonyl)piperidin-2-yl)methoxy)-1-(4-(4-methylpiperazin-1-yl)-4-phenethylpiperidin-1-yl)ethanone] | 100% | 99% | – | –
15 | Cc1cc(S(=O)(=O)N2CCCCC2CCC(=O)N2CCC(c3ccccc3)(N3CCN(C)CC3)CC2)c(C)cc1Cl (centres unmarked) [Compound 110, 3-(1-(4-chloro-2,5-dimethylphenylsulfonyl)piperidin-2-yl)-1-(4-(4-methylpiperazin-1-yl)-4-phenylpiperidin-1-yl)propan-1-one] | 104% | 78% | – | –
16 | CN(CCCC1CCC(c2ccccc2)(N2CCCC2)CC1)C(=O)CC1CCCCN1S(=O)(=O)c1cccc(C(F)(F)F)c1 (centres unmarked) [Compound 37, N-methyl-N-(3-(4-phenyl-4-(pyrrolidin-1-yl)cyclohexyl)propyl)-2-(1-(3-(trifluoromethyl)phenylsulfonyl)piperidin-2-yl)acetamide] | 103% | 101% | – | –
17 | COc1cc(C)c(S(=O)(=O)N(C)CCOCC(=O)N2CCC(c3cccc(F)c3)(N3CCN(C)CC3)CC2)c(C)c1 [Compound 44, N-(2-(2-(4-(3-fluorophenyl)-4-(4-methylpiperazin-1-yl)piperidin-1-yl)-2-oxoethoxy)ethyl)-4-methoxy-N,2,6-trimethylbenzenesulfonamide] | – | – | 102% | 101%
18 | CN1CCN(C2(CCc3ccccc3)CCN(C(=O)CC(NS(=O)(=O)c3ccc4ccccc4c3)c3ccccc3)CC2)CC1 (centres unmarked) [Compound 55, N-(3-(4-(4-methylpiperazin-1-yl)-4-phenethylpiperidin-1-yl)-3-oxo-1-phenylpropyl)naphthalene-2-sulfonamide] | 99% | 100% | – | –
19 | COc1cc(C)c(S(=O)(=O)N2CCCCC2COCC(=O)N(C)CCCC2CCC(Cc3ccccc3)(N3CCCC3)CC2)c(C)c1 (centres unmarked) [Compound 88, N-(3-(4-benzyl-4-(pyrrolidin-1-yl)cyclohexyl)propyl)-2-((1-(4-methoxy-2,6-dimethylphenylsulfonyl)piperidin-2-yl)methoxy)-N-methylacetamide] | 101% | 98% | – | –
